Source: publication PMC10285260, “Processive kinetics in the three-step lanosterol 14α-demethylation reaction catalyzed by human cytochrome P450 51A1” (The Journal of Biological Chemistry, 2023)
Values joined by “and” are separate entries in the source; they are usually repeats but may differ in a detail not shown here. Equal entries are not always repeated.

How the values were obtained:
human P450 51A1 [1] = assay: Kinetic modeling (KinTek Explorer) of the single-turnover time course; conditions: for k^+ of sterol binding to P450 51A1 (kon) used for fitting: all kon set at this value; for k^- of oxidation step of the P450-sterol complex: irreversible, set to zero; for k^- of sterol binding to P450 51A1 (koff) used for fitting / k^+ of oxidation step of the P450-sterol complex: optimized model; for k^+ of oxidation step of the P450-sterol complex: label = sterol oxidized in the step
Text: The initial koff rate constants used in fitting were the koff rates measured in the stopped-flow trap experiments (Fig. 9). All three oxidation reactions are irreversible, and thus k-2, k-4, and k-6 were set to zero.
Data were imported into KinTek Explorer software (v. 11.01, KinTek, https://kintekcorp.com/software) ([63], [64]) as txt files and processed using an Apple computer (operating system 11.6.2).

human P450 51A1 [2] = molecular target: T1, human P450 51A1 (Homo sapiens, UniProt Q16850); assay: Steady-state LC-UV assay of sterol oxidation to dihydro FF-MAS by reconstituted P450 51A1; conditions: for kcat relative to dihydrolanosterol / kcat/Km relative to dihydrolanosterol: oxidation to dihydro FF-MAS
T1 sequence (Q16850 1-509): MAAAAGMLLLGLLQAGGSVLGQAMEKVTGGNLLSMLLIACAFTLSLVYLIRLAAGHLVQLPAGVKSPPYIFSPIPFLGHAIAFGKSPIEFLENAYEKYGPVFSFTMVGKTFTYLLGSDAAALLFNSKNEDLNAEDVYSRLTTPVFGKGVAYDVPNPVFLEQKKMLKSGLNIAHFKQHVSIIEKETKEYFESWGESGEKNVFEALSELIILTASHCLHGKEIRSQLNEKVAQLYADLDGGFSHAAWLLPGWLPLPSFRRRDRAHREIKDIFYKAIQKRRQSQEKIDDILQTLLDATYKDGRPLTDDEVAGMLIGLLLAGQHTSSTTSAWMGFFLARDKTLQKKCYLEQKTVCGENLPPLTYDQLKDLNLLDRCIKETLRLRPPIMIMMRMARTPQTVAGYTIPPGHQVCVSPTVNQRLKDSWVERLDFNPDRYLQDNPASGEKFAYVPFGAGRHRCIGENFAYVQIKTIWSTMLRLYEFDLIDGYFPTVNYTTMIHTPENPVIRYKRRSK
Protocol: Steady-state incubations (500 μl) were generally done at 37 °C with 0.025 μM P450 51A1, 0.10 μM NADPH-P450 reductase, 100 μM L-α-dilauroyl-sn-glycero-3-phosphocholine, 50 mM potassium phosphate buffer (pH 7.4), 10% (v/v) glycerol, and an indicated concentration of each sterol (in 45% (w/v) HPCD). […] The sterols (stored at 4 °C) were prepared as described above and were heated to 37 °C and sonicated prior to use. Sterol working stocks were diluted in HPCD to ensure a constant concentration of cyclodextrin in each reaction. […] Accordingly, all reactions were done with this concentration of glycerol.
Reactions were preincubated (5 min, 37 °C) prior to initiation with an NADPH-regenerating system (0.5 mM NADP^+, 10 mM glucose 6-phosphate, and 2 μg ml^−1 glucose 6-phosphate dehydrogenase) ([60]) and were stopped after 5 min with the addition of CH2Cl2 (5 ml). (The NADPH-generating system, in addition to lower cost than NADPH, drives the reaction to avoid inhibition of the reductase by accumulated NADP^+). For the 14α-aldehyde, the times of preincubation and reaction were reduced (to 2 min and 1 min, respectively). The quenched mixture was centrifuged (2000g, 5 min), and 4 ml of the bottom (organic) layer was transferred to vials and brought to dryness under a stream of N2 gas. The dried residue was resuspended in CH3OH (100 μl) and was analyzed by UPLC using a 2.1 mm × 100 mm (1.7 μm) octadecylsilane (C18) column (held at 25 °C) and a Waters Acquity UPLC system. Samples (4 °C) were injected (10 μl) at a flow rate of 0.20 ml min^−1 using an isocratic mobile phase of CH3CN (only). The product (FF-MAS) was detected using a Waters Acquity photodiode array detector set at 250 nm (Fig. 4B). Data were processed using the MassLynx software (http://www.waters.com/waters/en_US/MassLynx-Mass-Spectrometry-Software-/nav.htm?cid=513164&locale=en_US), and the amount of product formed was calculated by comparison to a twelve-point dihydro FF-MAS standard curve. Determination of kcat and Km for each reaction was carried out by fitting the data to a Michaelis–Menten hyperbola, which was done using GraphPad Prism.
Incubations were run in triplicate, and the mean values (±SD) were calculated and plotted. The linear regression fits include the Prism error estimates for internal fitting (SE).

[3] = Estimation of Kd for HPCD-dihydrolanosterol complex (OD450 light scattering); type: physicochemical; conditions: pH 7.4, 2% C2H5OH, 23 °C, 16 h; two assays
[4] = tested on: rat liver microsomal systems; parameters: method as in PMID 3514778; conditions: rat liver microsomes fortified with cyanide, 2 h; cited from earlier work

## CC(C)CCCC(C)[C@H]1CC[C@@]2(C)C3=C(CC[C@]12C)[C@@]1(C)CC[C@H](O)C(C)(C)C1CC3 (stereo partly shown) [dihydrolanosterol, 24,25-dihydrolanosterol]
Human P450 51A1 [1]
  k^+ of sterol binding to P450 51A1 (kon) used for fitting: 2e+06 M⁻¹ s⁻¹
  k^- of oxidation step of the P450-sterol complex: 0
  k^- of sterol binding to P450 51A1 (koff) used for fitting: 0.075 s⁻¹
  k^+ of oxidation step of the P450-sterol complex: 7.5 s⁻¹
Human P450 51A1 [2]; oxidation to dihydro FF-MAS (epi-dihydro FF-MAS from epi substrate), 37 °C
  kcat: 0.50 ± 0.03 s⁻¹ and 0.50 s⁻¹
Human P450 51A1 [2]; substrate 0.25 µM
  Rate of FF-MAS formation (replicates): 0.9 min-1 and 1.0 min-1 (2×)
Human P450 51A1 [2]; substrate 0.50 µM
  Rate of FF-MAS formation (replicates): 2.4 min-1 (2×) and 2.1 min-1
Human P450 51A1 [2]; substrate 0.75 µM
  Rate of FF-MAS formation (replicates): 3.4 min⁻¹ and 3.0 min⁻¹ and 3.7 min⁻¹
Human P450 51A1 [2]; substrate 1.00 µM
  Rate of FF-MAS formation (replicates): 4.1 min⁻¹ and 4.3 min⁻¹ and 3.4 min⁻¹
Human P450 51A1 [2]; substrate 1.50 µM
  Rate of FF-MAS formation (replicates): 4.8 min⁻¹ and 6.3 min⁻¹ and 5.8 min⁻¹
Human P450 51A1 [2]; substrate 2.50 µM
  Rate of FF-MAS formation (replicates): 12.8 min⁻¹ and 12.1 min⁻¹ and 9.4 min⁻¹
Human P450 51A1 [2]; substrate 5.00 µM
  Rate of FF-MAS formation (replicates): 16.4 min-1 and 15.6 min-1 (2×)
Human P450 51A1 [2]; substrate 7.50 µM
  Rate of FF-MAS formation (replicates): 21.8 min⁻¹ and 17.6 min⁻¹ and 18.3 min⁻¹
Human P450 51A1 [2]; substrate 10.00 µM
  Rate of FF-MAS formation (replicates): 20.3 min⁻¹ and 21.5 min⁻¹ and 22.5 min⁻¹
Human P450 51A1 [2]; substrate 15.00 µM
  Rate of FF-MAS formation (replicates): 19.1 min⁻¹ and 23.3 min⁻¹ and 21.3 min⁻¹
[3]
  Kd: 6.4 mM and 6.8 mM

## CC(C)CCCC(C)[C@H]1CC[C@@]2(C=O)C3=C(CC[C@]12C)[C@@]1(C)CC[C@H](O)C(C)(C)C1CC3 (stereo partly drawn) [14α-CHO dihydrolanosterol, 24,25-dihydro-14α-formyl lanosterol]
[4]
  accumulation, yield: ~3%
Human P450 51A1 [1]
  k^+ of sterol binding to P450 51A1 (kon) used for fitting: 2e+06 M⁻¹ s⁻¹
  k^- of oxidation step of the P450-sterol complex: 0
  k^+ of oxidation step of the P450-sterol complex: 2.5 s⁻¹
Human P450 51A1 [2]
  kcat relative to dihydrolanosterol: about 3 fold
  kcat/Km relative to dihydrolanosterol: about 3 fold
Human P450 51A1 [2]; substrate 0.25 µM, listed as 14-CHO dihydrolanosterol
  Rate of FF-MAS formation (replicates): 2.969 min⁻¹ and 3.528 min⁻¹ and 3.126 min⁻¹
Human P450 51A1 [2]; substrate 0.50 µM, listed as 14-CHO dihydrolanosterol
  Rate of FF-MAS formation (replicates): 7.815 min⁻¹ and 6.139 min⁻¹ and 6.658 min⁻¹
Human P450 51A1 [2]; substrate 0.75 µM, listed as 14-CHO dihydrolanosterol
  Rate of FF-MAS formation (replicates): 11.25 min⁻¹ and 9.099 min⁻¹ and 10.0823 min⁻¹
Human P450 51A1 [2]; substrate 1.00 µM, listed as 14-CHO dihydrolanosterol
  Rate of FF-MAS formation (replicates): 13.4 min⁻¹ and 13.67 min⁻¹ and 13.3 min⁻¹
Human P450 51A1 [2]; substrate 1.50 µM, listed as 14-CHO dihydrolanosterol
  Rate of FF-MAS formation (replicates): 18.85 min⁻¹ and 19.74 min⁻¹ and 19.25 min⁻¹
Human P450 51A1 [2]; substrate 2.50 µM, listed as 14-CHO dihydrolanosterol
  Rate of FF-MAS formation (replicates): 28.46 min⁻¹ and 30.67 min⁻¹ and 32.21 min⁻¹
Human P450 51A1 [2]; substrate 5.00 µM, listed as 14-CHO dihydrolanosterol
  Rate of FF-MAS formation (replicates): 52.7446 min⁻¹ and 50.4 min⁻¹ and 54.73 min⁻¹
Human P450 51A1 [2]; substrate 7.50 µM, listed as 14-CHO dihydrolanosterol
  Rate of FF-MAS formation (replicates): 65.76 min⁻¹ and 62.41 min⁻¹ and 66.11 min⁻¹
Human P450 51A1 [2]; substrate 10.00 µM, listed as 14-CHO dihydrolanosterol
  Rate of FF-MAS formation (replicates): 70.12 min⁻¹ and 63.34 min⁻¹ and 67.78 min⁻¹
Human P450 51A1 [2]; substrate 15.00 µM, listed as 14-CHO dihydrolanosterol
  Rate of FF-MAS formation (replicates): 72.18 min⁻¹ and 76.97 min⁻¹ and 69.96 min⁻¹

## CC(C)CCCC(C)[C@H]1CC[C@@]2(CO)C3=C(CC[C@]12C)[C@@]1(C)CC[C@H](O)C(C)(C)C1CC3 (stereo partly drawn) [14α-CH2OH dihydrolanosterol, 24,25-dihydro-14α-CH2OH lanosterol]
[4]
  accumulation, yield: ~3%
Human P450 51A1 [1]
  k^+ of sterol binding to P450 51A1 (kon) used for fitting: 2e+06 M⁻¹ s⁻¹
  k^- of oxidation step of the P450-sterol complex: 0
  k^- of sterol binding to P450 51A1 (koff) used for fitting: 0.040 s⁻¹
  k^+ of oxidation step of the P450-sterol complex: 3.5 s⁻¹
Human P450 51A1 [2]
  kcat relative to dihydrolanosterol: ~1.5 fold
  kcat/Km relative to dihydrolanosterol: ~1.5 fold
Human P450 51A1 [2]; substrate 0.25 µM, listed as 14-CH2OH dihydrolanosterol
  Rate of FF-MAS formation (replicates): 1.4 min-1 (2×) and 1.5 min-1
Human P450 51A1 [2]; substrate 0.50 µM, listed as 14-CH2OH dihydrolanosterol
  Rate of FF-MAS formation (replicates): 3.1 min-1 and 3.0 min-1 (2×)
Human P450 51A1 [2]; substrate 0.75 µM, listed as 14-CH2OH dihydrolanosterol
  Rate of FF-MAS formation (replicates): 4.7 min⁻¹ and 4.5 min⁻¹ and 3.9 min⁻¹
Human P450 51A1 [2]; substrate 1.00 µM, listed as 14-CH2OH dihydrolanosterol
  Rate of FF-MAS formation (replicates): 6.5 min-1 (2×) and 7.1 min-1
Human P450 51A1 [2]; substrate 1.50 µM, listed as 14-CH2OH dihydrolanosterol
  Rate of FF-MAS formation (replicates): 8.9 min⁻¹ and 8.6 min⁻¹ and 11.1 min⁻¹
Human P450 51A1 [2]; substrate 2.50 µM, listed as 14-CH2OH dihydrolanosterol
  Rate of FF-MAS formation (replicates): 16.2 min⁻¹ and 16.4 min⁻¹ and 16.5 min⁻¹
Human P450 51A1 [2]; substrate 5.00 µM, listed as 14-CH2OH dihydrolanosterol
  Rate of FF-MAS formation (replicates): 25.1 min⁻¹ and 20.7 min⁻¹ and 25.9 min⁻¹
Human P450 51A1 [2]; substrate 7.50 µM, listed as 14-CH2OH dihydrolanosterol
  Rate of FF-MAS formation (replicates): 25.1 min⁻¹ and 26.3 min⁻¹ and 27.2 min⁻¹
Human P450 51A1 [2]; substrate 10.00 µM, listed as 14-CH2OH dihydrolanosterol
  Rate of FF-MAS formation (replicates): 26.4 min⁻¹ and 27.4 min⁻¹ and 26.6 min⁻¹
Human P450 51A1 [2]; substrate 15.00 µM, listed as 14-CH2OH dihydrolanosterol
  Rate of FF-MAS formation (replicates): 29.2 min⁻¹ and 33.0 min⁻¹ and 31.0 min⁻¹
